Test results as given in BindingDB's records for doi:10.1016/s0960-894x(02)00064-1 (University of Lyon 1, 2002).

How the values were obtained:
[1] = target: Toxoplasma gondii purine nucleoside phosphorylase (Toxoplasma gondii); test: Compound was evaluated for its binding affinity against Toxoplasma gondii purine nucleoside phosphorylase of virulent strain RH (value indicates competitive inhibition)
[2] = target: Toxoplasma gondii purine nucleoside phosphorylase (Toxoplasma gondii); test: as above; remark: listed apart in the source
[3] = target: Toxoplasma gondii purine nucleoside phosphorylase (Toxoplasma gondii); test: Compound was evaluated for its binding affinity against Toxoplasma gondii purine nucleoside phosphorylase from cystic strain ME 49 (value indicates competitive inhibition)
[4] = target: Toxoplasma gondii purine nucleoside phosphorylase (Toxoplasma gondii); test: Compound was evaluated for its binding affinity against Toxoplasma gondii purine nucleoside phosphorylase of virulent strain RH (value indicates Non competitive inhibition)
[5] = target: Toxoplasma gondii purine nucleoside phosphorylase (Toxoplasma gondii); test: Compound was evaluated for its binding affinity against Toxoplasma gondii purine nucleoside phosphorylase from cystic strain ME 49 (value indicates Non competitive inhibition)

SMILES | Ki [1] | Ki [2] | Ki [3] | Ki [4] | Ki [5]
O=c1[nH]cnc2c1cnn2[C@@H]1O[C@H](CO)[C@@H](O)[C@H]1O | 1800 µM | 2000 µM |  |  | 
O=C1C=CC(=O)c2c1nc(Cc1ccccc1)n2Cc1ccccc1 [1,2-Dibenzyl-1H-benzoimidazole-4,7-dione] | 670 µM |  | 350 µM |  | 
O=C1C=CC(=O)c2c1ncn2Cc1ccccc1F [1-(2-Fluoro-benzyl)-1H-benzoimidazole-4,7-dione] |  |  |  | 1480 µM | 1500 µM
O=C1C=CC(=O)c2c1ncn2Cc1cccc(F)c1 [1-(3-Fluoro-benzyl)-1H-benzoimidazole-4,7-dione] |  |  |  | 990 µM | 520 µM
O=C1C=CC(=O)c2c1ncn2Cc1ccc(F)cc1 [1-(4-Fluoro-benzyl)-1H-benzoimidazole-4,7-dione] |  |  |  | 780 µM | 990 µM
Cc1nc2c(n1Cc1ccccc1)C(=O)C=CC2=O [1-Benzyl-2-methyl-1H-benzoimidazole-4,7-dione] |  | 1050 µM | 300 µM |  | 
CCCCn1cnc2c1C(=O)C=CC2=O [1-Butyl-1H-benzoimidazole-4,7-dione] |  |  |  | 2960 µM | 560 µM
Cn1cnc2c1C(=O)C=CC2=O [1-Methyl-1H-benzoimidazole-4,7-dione] |  |  |  | 2210 µM | 
O=C1C=CC(=O)c2[nH]cnc21 [1H-Benzoimidazole-4,7-dione] |  |  |  | 1650 µM | 550 µM
